Where a SMILES comes first, the peptide text is derived from it. Bridges are numbered along the chain shown (N, C = ends). [ ]: non-standard residue; d: D form. The star is where a group is joined. ξ: configuration not given here. Octanoyl(6-Me) = CCC(C)CCCCC(=O)*; Thr(3ξ) = CC(O)[C@H](N)C(=O)O; Dab = NCC[C@H](N)C(=O)O; ξDab = NCCC(N)C(=O)O
How the values were obtained:
P. aeruginosa #44 [1] = assay: MIC against P. aeruginosa #44 in polystyrene plate; format: cell-based, Pseudomonas aeruginosa; conditions: range of repeated tests
Experimental: P. aeruginosa #44 were grown in cation adjusted Mueller Hinton Broth (caMHB) (catalog#B12322; Fisher Scientific, Pittsburgh, Pa.) at 37° C. MIC testing was performed according to Clinical and Laboratory Standards Institute [CLSI, formerly National Committee for Clinical Laboratory Standards (NCCLS), Wayne, Pa.] guidelines for broth microdilution. […]

A. baumannii = assay: MIC50/90 against small panels (n = 35); format: cell-based, Acinetobacter baumannii; parameters: key: A: a MIC value measurement that is the same as that observed for polymyxin B; a MIC value measured that is lower than the comparable value observed for polymxin B; a MIC value measured that is higher than the comparable value observed for polymyxin B; conditions: small panel n = 35, relative to polymyxin B
Experimental: (§1) Antibacterial potency can be assessed by broth microdilution according to CLSI guidelines, plates can be incubated at 37° C., and aeration (rotation at 200 rpm) can be employed. In some assays, surfactant (Survanta, Abbott Laboratories) can be added to give a final concentration of 1, 10 and 40% in caMHB. Native polymyxin A, polymyxin B and the comparator compound of Formula II (polymyxin B decapeptide with an o-chlorophenyl urea tail) were included for comparison.

P. aeruginosa 44 [2] = assay: MIC against the primary screening panel (broth microdilution); format: cell-based, Pseudomonas aeruginosa; parameters: key: A: a MIC value measurement that is the same as that observed for polymyxin B; a MIC value measured that is lower than the comparable value observed for polymxin B; a MIC value measured that is higher than the comparable value observed for polymyxin B; conditions: relative to polymyxin B
Experimental: as §1

K. pneumoniae 933 = assay: as above; format: cell-based, Klebsiella pneumoniae; parameters: key: A: a MIC value measurement that is the same as that observed for polymyxin B; a MIC value measured that is lower than the comparable value observed for polymxin B; a MIC value measured that is higher than the comparable value observed for polymyxin B; conditions: relative to polymyxin B
Experimental: as §1

P. aeruginosa 44 [3] = assay: Neutropenic mouse lung infection model; format: in vivo; conditions: for Lungs cleared within one log10 of limit of detection: 8 through 20 mg/kg dose levels; for ED−3log10: neutropenic mouse lung, P. aeruginosa 44, SC, BID×1 d, cfu 24 hours post-infection
Experimental: Compound of Formula (Ia) was tested in a murine thigh model. For the thigh model, female CD-1 mice were rendered neutropenic by IP injection on days −4 and −1 with 150 and 100 mg/kg cyclophosphamide, respectively. On day 0 mice were infected with 1×10^7 colony-forming units (cfu) of A. baumannii 1570 in one thigh muscle, and then administered compound SC in a dose ranging from 2 to 12 mg/kg at 1 and 6 hours post-infection.
The mouse lung model was run in the same manner as the thigh infection model, except that mice were infected IN with 1×10^7 cfu of P. aeruginosa 44 on day 0. Doses administered in the lung study ranged from 8 to 20 mg/kg. The ED−3log10 was based on cfu determination from the lung tissue 24 hours post-infection.

A. baum = assay: MIC50 and MIC90, CLSI broth microdilution, panel of Gram negative strains; format: cell-based, Acinetobacter baumannii; parameters: key: A: a measured MIC value equal to that of polymyxin B; a measured MIC value less than the corresponding MIC value measured for polymyxin B; a measured MIC value greater than the corresponding MIC value measured for polymyxin B; conditions: relative to polymyxin B; some strains multi-drug resistant
Experimental: (§2) MIC testing can be performed according to Clinical and Laboratory Standards Institute (CLSI) M7-A7 (2006) broth microdilution methods. Unless otherwise indicated, MIC values are provided in units of micrograms per milliliter.
(§3) One day prior to testing, individual colonies were isolated by streaking onto rich, non-selective Tryptic Soy agar with 5% lysed sheeps blood (TSAB) with incubation at 35-37° C. for 18-24 hours.
(§4) Cultures were prepared by touching 3-5 colonies into 3 mL of cation-adjusted Mueller Hinton Broth (caMHB) in a 14-mL tube (caMHB was prepared and sterilized according to manufacturer's specifications).
(§5) OD600 of growing cultures was measured and adjusted to approximately 10^5 colony forming units per mL (CFU/mL) in caMHB for MIC inoculation (approximately OD600 0.001).
(§6) Diluted cultures were used to inoculate 50 μL per well in broth microdilution assays (final volume 100 μl per well; compounds were prepared in two-fold dilutions).
(§7) Plates were incubated 16-20 hours at 37° C., with shaking at 200 rpm.
(§8) OD600 was determined for all wells. Growth was defined as OD600>0.1. MICs were defined as the lowest concentration producing no visible turbidity (OD600<0.1).

K. pneumoniae = assay: MIC50/90 against small panels (n = 35); format: cell-based, Klebsiella pneumoniae; parameters: key: A: a MIC value measurement that is the same as that observed for polymyxin B; a MIC value measured that is lower than the comparable value observed for polymxin B; a MIC value measured that is higher than the comparable value observed for polymyxin B; conditions: small panel n = 35, relative to polymyxin B
Experimental: as §1

P. aeruginosa #44 [4] = assay: MICs for P. aeruginosa #44 in the presence of surfactant; format: cell-based, Pseudomonas aeruginosa; parameters: key: A: a MIC value measurement that is the same as that observed for polymyxin B; a MIC value measured that is lower than the comparable value observed for polymxin B; a MIC value measured that is higher than the comparable value observed for polymyxin B
Experimental: as §1

A. baumannii 1570 = assay: MIC against the primary screening panel (broth microdilution); format: cell-based, Acinetobacter baumannii; parameters: key: A: a MIC value measurement that is the same as that observed for polymyxin B; a MIC value measured that is lower than the comparable value observed for polymxin B; a MIC value measured that is higher than the comparable value observed for polymyxin B; conditions: relative to polymyxin B
Experimental: as §1

P. aeruginosa = assay: MIC50/90 against small panels (n = 35); format: cell-based, Pseudomonas aeruginosa; parameters: key: A: a MIC value measurement that is the same as that observed for polymyxin B; a MIC value measured that is lower than the comparable value observed for polymxin B; a MIC value measured that is higher than the comparable value observed for polymyxin B; conditions: small panel n = 35, relative to polymyxin B
Experimental: as §1

P. aeru = assay: MIC50 and MIC90, CLSI broth microdilution, panel of Gram negative strains; format: cell-based, Pseudomonas aeruginosa; parameters: key: A: a measured MIC value equal to that of polymyxin B; a measured MIC value less than the corresponding MIC value measured for polymyxin B; a measured MIC value greater than the corresponding MIC value measured for polymyxin B; conditions: relative to polymyxin B; some strains multi-drug resistant
Experimental: as §2, §3, §4, §5, §6, §7, §8

K. pneu = assay: as above; format: cell-based, Klebsiella pneumoniae; parameters: key: A: a measured MIC value equal to that of polymyxin B; a measured MIC value less than the corresponding MIC value measured for polymyxin B; a measured MIC value greater than the corresponding MIC value measured for polymyxin B; conditions: relative to polymyxin B; some strains multi-drug resistant
Experimental: as §2, §3, §4, §5, §6, §7, §8

E. coli [5] = assay: as above; format: cell-based, Escherichia coli; parameters: key: A: a measured MIC value equal to that of polymyxin B; a measured MIC value less than the corresponding MIC value measured for polymyxin B; a measured MIC value greater than the corresponding MIC value measured for polymyxin B; conditions: relative to polymyxin B; some strains multi-drug resistant
Experimental: as §2, §3, §4, §5, §6, §7, §8

E. coli [6] = assay: MIC50/90 against small panels (n = 35); format: cell-based, Escherichia coli; parameters: key: A: a MIC value measurement that is the same as that observed for polymyxin B; a MIC value measured that is lower than the comparable value observed for polymxin B; a MIC value measured that is higher than the comparable value observed for polymyxin B; conditions: small panel n = 35, relative to polymyxin B
Experimental: as §1

E. coli 1527 = assay: MIC against the primary screening panel (broth microdilution); format: cell-based, Escherichia coli; parameters: key: A: a MIC value measurement that is the same as that observed for polymyxin B; a MIC value measured that is lower than the comparable value observed for polymxin B; a MIC value measured that is higher than the comparable value observed for polymyxin B; conditions: relative to polymyxin B
Experimental: as §1

[7] = Acute toxicity testing in rats; format: in vivo, Sprague-Dawley rat; conditions: 1 mg/kg i.v.
Experimental: One female Sprague-Dawley rat was administered a 1 mg/kg dose of the test Compound 5. Clinical observations were taken immediately following the administration of compound and at 0.5, 1, 2 and 4 hours post-dose.

[8] = tested on: Gram negative bacterial strains; assay: Potency and spectrum against a panel of Gram negative bacterial strains; format: cell-based
Source text: The potency and spectrum of Compound 5 was studied using a panel of Gram negative bacterial strains.
as §2

SMILES	MIC against P. aeruginosa #44 In polystyrene plate (P. aeruginosa #44 [1])	A. baumannii MIC50 (A. baumannii)	A. baumannii MIC90 (A. baumannii)	MIC P. aeruginosa 44 (P. aeruginosa 44 [2])	MIC K. pneumoniae 933 (K. pneumoniae 933)	Lungs cleared within one log10 of limit of detection (P. aeruginosa 44 [3])	ED−3log10 (P. aeruginosa 44 [3])	A. baum MIC 50 (A. baum)	A. baum MIC 90 (A. baum)	K. pneumoniae MIC50 (K. pneumoniae)	K. pneumoniae MIC90 (K. pneumoniae)	MIC A. baumannii 1570 (A. baumannii 1570)	P. aeruginosa MIC50 (P. aeruginosa)	P. aeruginosa MIC90 (P. aeruginosa)	P. aeru MIC 50 (P. aeru)	P. aeru MIC 90 (P. aeru)	K. pneu MIC 50 (K. pneu)	K. pneu MIC 90 (K. pneu)	E. coli MIC50 (E. coli [5])	E. coli MIC90 (E. coli [5])	further results
CCC(C)CCCCC(=O)N[C@@H](CCN)C(=O)N[C@H](C(=O)N[C@@H](CCN)C(=O)NC1CCNC(=O)[C@H](C(C)O)NC(=O)[C@H](CCN)NC(=O)C(CCN)NC(=O)[C@H](CC(C)C)NC(=O)[C@@H](Cc2ccccc2)NC(=O)[C@H](CCN)NC1=O)C(C)O (stereo partly drawn) [Polymyxin B] ({Octanoyl(6-Me)}-[Dab][Thr(3ξ)][Dab][ξDab][Dab][dF]L[ξDab][Dab][Thr(3ξ)]; lactam 4-C)	1-2 micrograms/ml	A	A	A	A	not observed	> 20 mg/kg	A	A	A	A	A	A	A	A	A	A	A	A	A	ED−3log10 (P. aeruginosa 44 [3]; listed as PMB): 20.6 mg/kg; MIC P. aeruginosa #44, 0% surfactant (P. aeruginosa #44 [4]): 0.06 micrograms/ml; MIC P. aeruginosa #44, 10% surfactant (P. aeruginosa #44 [4]): 8 micrograms/ml; MIC P. aeruginosa #44, 40% surfactant (P. aeruginosa #44 [4]): >32 micrograms/ml; E. coli MIC50 (E. coli [6]): A; E. coli MIC90 (E. coli [6]): A; MIC E. coli 1527 (E. coli 1527): A
CC(C)C[C@H]1NC(=O)[C@H](CCN)NC(=O)[C@@H](NC(=O)[C@@H](CCN)NC(=O)[C@@H](NC(=O)[C@H](CCN)NC(=O)[C@H]2C[C@@H]2c2ccccc2)C(C)O)CCNC(=O)[C@H](C(C)O)NC(=O)[C@H](CCN)NC(=O)[C@H](CCN)NC(=O)[C@H](C(C)O)NC1=O (single isomer, unassigned) [Compound 5]	1-2 micrograms/ml	C	C	C	C	Lungs cleared within one log10 of limit of detection	6.35 mg/kg	C	C	C	C	C	A	C	A	C	C	C	C	A	time by which rat had no clinical signs ([7]; 1 female Sprague-Dawley rat): ≤ 1 h; Acute (anaphylactoid) observations ([7]; female Sprague-Dawley rat): anaphylactoid response was observed; MIC P. aeruginosa #44, 0% surfactant (P. aeruginosa #44 [4]; relative to polymyxin B): C; MIC P. aeruginosa #44, 10% surfactant (P. aeruginosa #44 [4]; relative to polymyxin B): B; MIC P. aeruginosa #44, 40% surfactant (P. aeruginosa #44 [4]; relative to polymyxin B): B; E. coli MIC50 (E. coli [6]): C; E. coli MIC90 (E. coli [6]): A; activity against E. coli, K. pneumonia, P. Aeruginosa and A. baumanni isolates [8]: active; activity against multi-drug resistant strains [8]: active against multi-drug resistant strains; MIC E. coli 1527 (E. coli 1527): A
